In patent US10294212B2 (CURADEV PHARMA PRIVATE LTD., priority 2013, dated 2019):

What was measured:
[1] = target: Human indoleamine 2,3-dioxygenase1 (hIDO1) (Homo sapiens (Human), UniProt P14902); assay: In-vitro IDO1 enzyme assay (conversion of L-tryptophan to KYN); type: biochemical; conditions: read-out: IC50 (IDO1) Enz
Outline: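 Kynurenine formation quantified by HPLC absorbance at 360 nm or LC/MS/MS after TCA quench and 15 min at 65 °C. Reaction: 10 nM N-His hIDO1, 30 μM tryptophan, ascorbate/methylene blue/catalase, pH 6.5 phosphate buffer, 37 °C for 30 min. Inhibition relative to 1% DMSO vehicle, fitted to IC50.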

[2] = system: plasma and tumor tissue KYN; assay: Tumor penetration: KYN levels in tumor and plasma, CT26/Balb/C tumor model; type: in vivo, Balb/c mice; conditions: 50 mg/kg oral BID 4 days, vs vehicle; for plasma KYN levels reduced: 2 hours post-dosing
Experimental: i. Tumor penetration in mice: Tumor penetration of test compounds and KYN levels in tumor and plasma of treated animals were determined in a syngeneic CT26/Balb/C tumor model. Briefly, three to four tumor bearing Balb/c mice (tumor size=150-200 mm^3) were dosed twice a day orally for 4 days with test compound (for e.g., compound 2) at 50 mg/kg formulated in carboxymethyl cellulose (CMC). A vehicle control was included along with the test compounds. Blood samples were collected by retro-orbital bleed or terminal cardiac bleed into tubes containing heparin just before the final dose and at two hours after the final dose. Animals were sacrificed two hours post-final dose. Tumors were harvested and weighed immediately. Tumors were then snap frozen in liquid nitrogen, pulverized and dissolved in homogenization buffer (chilled acetonitrile/water/formic acid (10:90:0.1 v/v/v) to extract test compounds and kynurenine, KYN.
Plasma and tumor tissue KYN levels were reduced in test compound treated animals compared to control vehicle-treated animals (TABLE 7). For example, compounds 2 and 97 each reduced tumor KYN levels by 81%. At 2 hours post-dosing, the plasma KYN levels were reduced by 62% and 67% respectively in the animals treated with compound 2 or 97 compared to the control animals dosed with vehicle alone. The concentration of test compounds in the tumor tissue extracts is determined by LC/MS/MS using an API 4000 or AP15500 Qtrap mass spectrometer.

[3] = Brain penetration in rats; type: in vivo, Sprague-Dawley rats; conditions: rat, single i.v. 10 mg/kg
Experimental: ii. Brain penetration in rats: Early and accurate prediction of drug penetration of the blood brain barrier is vital for the development of drugs targeting the central nervous system. Accordingly, ability of the compounds of the invention to penetrate the blood brain barrier was tested according to the methods well established in the art (Giorgetti et al., (2010) JPET 333:748-757, 2010). Briefly, Sprague-Dawley rats (n=3 per time point studied) were administered a single intravenous dose of the test compounds 2 or 97 formulated in 40% PEG and 20% PG at 10 mg/kg. Three rats were used for each of the following time points post-dosing: 0.5 hr, 1.5 hr and 3.0 hrs. First, blood was collected during deep anesthesia in heparinized tubes, and then animals were sacrificed and their brains were harvested. The brains were then pulverized in liquid nitrogen and homogenized in fixed volumes of ice cold homogenization buffer (10% Acetonitrile, 0.1% formic acid in water). Plasma was separated from blood using standard procedures. Plasma and brain concentrations of test compounds 2 and 97 were determined by LC/MS/MS using an API 4000 or AP15500 Qtrap mass spectrometer. Brain/Plasma ratio of test compounds 2 and 97 were determined after normalizing brain weight and buffer volume.

[4] = system: CT-26 tumor cells; assay: Combination therapy with Doxorubicin in CT-26 syngeneic tumor model; type: in vivo, Balb/c mice; conditions: vs DOXO or compound alone
Experimental: Test compounds were evaluated in mice syngeneic tumor models described above for usefulness in combination therapy with a chemotheraputic agent, Doxorubicin (DOXO, Sterling Biotech, India).
Tumor bearing Balb/c mice as described earlier were randomized to receive vehicle alone, test compound alone, DOXO alone, or test compound in combination with DOXO. Animals in DOXO treated arm were injected intraperitoneally on day 1 with DOXO formulated in normal saline (7.5 mg/kg). Five days later, the animals were dosed twice a day orally with either a test compound or vehicle alone during the test period till the end of the experiment. A second smaller dose of DOXO at 3 or 4 mg/Kg was administered to the DOXO-treated animals about 3 weeks after the first DOXO dose. Tumor volume was measured in animals as described above.
Non-limiting examples follow. Test compound 97 was formulated in 40% PEG, 20% PG, 10% DACM in normal saline. From day 5 after the first DOXO dose was administered till the end of the study period on day 35, the animals were dosed twice a day orally with compound 97 (75 mg/kg). Three weeks later, the DOXO-treated animals were injected i.p. with a second dose of DOXO (3 mg/kg). Tumor volume was monitored as described above. Tumor tissues and final blood samples were harvested from the mice 4 hours after the final test compound dose. […]

Human indoleamine 2,3-dioxygenase1 (hIDO1), sequence (P14902 whole entry): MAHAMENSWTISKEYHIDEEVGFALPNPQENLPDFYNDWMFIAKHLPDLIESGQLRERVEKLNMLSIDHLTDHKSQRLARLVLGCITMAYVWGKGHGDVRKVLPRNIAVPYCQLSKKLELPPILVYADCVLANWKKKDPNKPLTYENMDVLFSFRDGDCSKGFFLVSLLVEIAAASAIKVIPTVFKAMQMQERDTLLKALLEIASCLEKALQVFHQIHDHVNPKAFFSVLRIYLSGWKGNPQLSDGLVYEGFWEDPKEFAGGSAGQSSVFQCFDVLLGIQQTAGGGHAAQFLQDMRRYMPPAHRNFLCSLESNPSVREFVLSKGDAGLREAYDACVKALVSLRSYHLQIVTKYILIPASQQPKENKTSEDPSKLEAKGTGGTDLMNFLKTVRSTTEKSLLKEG

IC50 [1] [nM] | Structure (SMILES) | tumor KYN levels reduced [2] [%] | plasma KYN levels reduced [2] [%] | blood brain barrier penetration [3] | tumor volume, combination with DOXO ([4]; 50 mg/kg oral BID + DOXO) | tumor volume, combination with DOXO ([4]; 75 mg/kg oral BID + DOXO 7.5 then 3 mg/kg i.p.)
< 200 | Nc1oc2cnccc2c1Nc1ccc(F)c(Cl)c1 [Compound 2, N^3-(3-Chloro-4-fluoro-phenyl)-furo[2,3-c]pyridine-2,3-diamine] | 81 | 62 | capable of penetrating blood brain barrier | – | –
< 200 | Nc1oc2c(-c3ccncc3)nccc2c1Nc1ccc(F)c(F)c1 [Compound 184, N^3-(3,4-difluorophenyl)-7-(pyridin-4-yl)furo[2,3-c]pyridine-2,3-diamine] | – | – | – | greater reduction in tumor volume | –
< 200 | Nc1oc2c(-c3ccncc3)nccc2c1Nc1ccc(F)c(Cl)c1 [Compound 97, N^3-(3-Chloro-4-fluorophenyl)-7-(pyridin-4-yl)furo[2,3-c]pyridine-2,3-diamine] | 81 | 67 | capable of penetrating blood brain barrier | – | greater reduction in tumor volume
